Laboratory results from patent publication US20230114753A1, “USE OF A GROUP OF MARKERS FOR DIAGNOSING AND ADJUSTING TREATMENT OF PRIMARY BILIARY CHOLANGITIS, PHARMACEUTICAL COMPOSITION AND SOLID DOSAGE FORM FOR TREATING PRIMARY BILIARY CHOLANGITIS” (MILI HEALTHCARE TRADE DMCC, LIMITED LIABILITY COMPANY, priority 2020, published 2023).
Values joined by “and” are separate entries in the source; they are usually repeats but may differ in a detail not shown here. Equal entries are not always repeated.

What was measured:
patients with PBC = assay: Effectiveness of the PBC treatment using various regimens (positive response, Paris2 system, 12 months); assay type: in vivo, human; conditions: Paris2 criteria
Procedure: A double-blind clinical study on the effectiveness of the combined pharmaceutical composition comprising UDCA and OCA compared to UDCA was conducted.
To study the effectiveness, the tablet embodiments No. 15 and No. 16 were used.
A study on the effectiveness of the various treatment regimens for the patients with PBC was conducted. A total of three treatment regimens were used in the study: • 1) UDCA monocomposition at a dose of 15 mg/kg/day. • 2) Combined pharmaceutical composition in the pharmaceutical form with the modified release and at a dose of UDCA 15 mg/kg+OCA 5 mg per day. • 3) Combined pharmaceutical composition in the pharmaceutical form with the modified release and at a dose of UDCA 15 mg/kg+OCA 10 mg per day.
The studies were carried out for 12 months, during which the quality of the treatment was assessed by measuring biochemical and molecular biological markers (see above).
The evaluation of the effectiveness of the treatment was carried out on the basis of the Paris2 system, according to which the criteria for a satisfactory treatment are: • ALT level≤3-fold upper limit of normal (ULN); • AST level≤2-fold ULN; • normal bilirubin level.

[1] = test system: patients diagnosed with PBC; assay: Double-blind clinical study: biochemical and molecular markers in blood of PBC patients treated with UDCA or UDCA+OCA; assay type: in vivo, human; conditions: blood plasma
Procedure: To determine the concentration level values of the markers in the blood serum, chemiluminescence and enzyme immunoassay methods were used.
A double-blind clinical study was conducted on the effectiveness of the combined pharmaceutical composition comprising UDCA and OCA compared with the monocomposition comprising only UDCA for the patients with the following concentration level values of the claimed group of the markers (corresponding to 1 Stage of PBC): • IL-6—at least 10%; • Nf-kB—at least 5%; • MCP-1/CCL2—at least 5%; • Bcl-2—at least 5%; • TNF-α—at least 12%; • MDA—at least 0.5%.
The patients diagnosed with PBC were divided into 3 groups depending on the treatment regimen:
2) Group UDCA 15 mg/kg+OCA 5 mg;
3) Group UDCA 15 mg/kg+OCA 10 mg.
After the treatment, venous blood samples were taken from the patients and the concentrations of biochemical and molecular markers were determined.
As markers of the treatment effectiveness, two groups of markers were used: biochemical and molecular biological.
The first group included: ALT, AST, GGT (Gamma-glutamyl Transferase), AP and total bilirubin.
The second group included: TNF-α, IL-6, Nf-kB, MCP-1/CCL2, BCL-2, and MDA.

[2] = month 6 of treatment, listed as UDCA 15 mg/kg
[3] = month 12 of treatment, listed as UDCA 15 mg/kg

C[C@H](CCC(=O)O)[C@H]1CC[C@H]2[C@@H]3[C@@H](O)C[C@@H]4C[C@H](O)CC[C@]4(C)[C@H]3CC[C@]12C [UDCA, ursodeoxycholic acid]
Number of patients with positive response to treatment (%) (patients with PBC): 58.82%
Number of patients with positive response to treatment (number) (patients with PBC; groups of 68, 65, 63 patients): 40
ALT ([1]; month 1 of treatment): 80.4 U/l
ALT, in % of the initial value ([1]; month 1 of treatment): 97.22%
AP ([1]; month 1 of treatment): 352.5 U/l
AP, in % of the initial value ([1]; month 1 of treatment): 97.20%
AST ([1]; month 1 of treatment): 100.7 U/l
AST, in % of the initial value ([1]; month 1 of treatment): 95.72%
Bcl-2 ([1]; month 1 of treatment): 0.68 U/ml
Bcl-2, in % of the initial value ([1]; month 1 of treatment): 94.44%
GGT ([1]; month 1 of treatment): 198 U/l
GGT, in % of the initial value ([1]; month 1 of treatment): 95.42%
IL-6 ([1]; month 1 of treatment): 23.35 pg/mL
IL-6, in % of the initial value ([1]; month 1 of treatment): 99.19%
MCP-1/CCL2 ([1]; month 1 of treatment): 465.4 pg/mL
MCP-1/CCL2, in % of the initial value ([1]; month 1 of treatment): 99.34%
MDA ([1]; month 1 of treatment): 22.87 nmol/mL
MDA, in % of the initial value ([1]; month 1 of treatment): 99.09%
Nf-kB ([1]; month 1 of treatment): 64.4 pg/mL
Nf-kB, in % of the initial value ([1]; month 1 of treatment): 98.32%
TNF-α ([1]; month 1 of treatment): 0.33 ng/mL
TNF-α, in % of the initial value ([1]; month 1 of treatment): 100.00%
Total bilirubin ([1]; month 1 of treatment): 39.8 µmol/L
Total bilirubin, in % of the initial value ([1]; month 1 of treatment): 96.18%
ALT ([1]; month 3 of treatment): 74.81 U/l
ALT, in % of the initial value ([1]; month 3 of treatment): 90.46%
AP ([1]; month 3 of treatment): 290.6 U/l
AP, in % of the initial value ([1]; month 3 of treatment): 88.10%
AST ([1]; month 3 of treatment): 87.3 U/l
AST, in % of the initial value ([1]; month 3 of treatment): 82.98%
Bcl-2 ([1]; month 3 of treatment): 0.62 U/ml
Bcl-2, in % of the initial value ([1]; month 3 of treatment): 86.11%
GGT ([1]; month 3 of treatment): 178.8 U/l
GGT, in % of the initial value ([1]; month 3 of treatment): 86.17%
IL-6 ([1]; month 3 of treatment): 22.95 pg/mL
IL-6, in % of the initial value ([1]; month 3 of treatment): 97.49%
MCP-1/CCL2 ([1]; month 3 of treatment): 448 pg/mL
MCP-1/CCL2, in % of the initial value ([1]; month 3 of treatment): 95.62%
MDA ([1]; month 3 of treatment): 22.54 nmol/mL
MDA, in % of the initial value ([1]; month 3 of treatment): 97.66%
Nf-kB ([1]; month 3 of treatment): 64.1 pg/mL
Nf-kB, in % of the initial value ([1]; month 3 of treatment): 97.86%
TNF-α ([1]; month 3 of treatment): 0.324 ng/mL
TNF-α, in % of the initial value ([1]; month 3 of treatment): 98.18%
Total bilirubin ([1]; month 3 of treatment): 33.8 µmol/L
Total bilirubin, in % of the initial value ([1]; month 3 of treatment): 87.50%
ALT, in % of the initial value [1, 2]: 67.32% and 82.47%
AP, in % of the initial value [1, 2]: 63.93% and 74.45%
AST, in % of the initial value [1, 2]: 67.24% and 77.38%
Bcl-2, in % of the initial value [1, 2]: 95.24% and 80.56%
GGT, in % of the initial value [1, 2]: 65.16% and 75.28%
IL-6, in % of the initial value [1, 2]: 85.81% and 93.46%
MCP-1/CCL2, in % of the initial value [1, 2]: 88.00% and 92.08%
MDA, in % of the initial value [1, 2]: 95.36% and 96.92%
Nf-kB, in % of the initial value [1, 2]: 91.91% and 95.88%
TNF-α, in % of the initial value [1, 2]: 87.88% and 95.45%
ALT ([1]; month 9 of treatment): 62.47 U/l
ALT, in % of the initial value ([1]; month 9 of treatment): 75.54%
AP ([1]; month 9 of treatment): 247.5 U/l
AP, in % of the initial value ([1]; month 9 of treatment): 69.18%
AST ([1]; month 9 of treatment): 74.5 U/l
AST, in % of the initial value ([1]; month 9 of treatment): 70.82%
Bcl-2 ([1]; month 9 of treatment): 0.54 U/ml
Bcl-2, in % of the initial value ([1]; month 9 of treatment): 75.00%
GGT ([1]; month 9 of treatment): 141.5 U/l
GGT, in % of the initial value ([1]; month 9 of treatment): 68.19%
IL-6 ([1]; month 9 of treatment): 21.48 pg/mL
IL-6, in % of the initial value ([1]; month 9 of treatment): 91.25%
MCP-1/CCL2 ([1]; month 9 of treatment): 419.7 pg/mL
MCP-1/CCL2, in % of the initial value ([1]; month 9 of treatment): 89.58%
MDA ([1]; month 9 of treatment): 22.12 nmol/mL
MDA, in % of the initial value ([1]; month 9 of treatment): 95.84%
Nf-kB ([1]; month 9 of treatment): 61.4 pg/mL
Nf-kB, in % of the initial value ([1]; month 9 of treatment): 93.74%
TNF-α ([1]; month 9 of treatment): 0.3 ng/mL
TNF-α, in % of the initial value ([1]; month 9 of treatment): 90.91%
Total bilirubin ([1]; month 9 of treatment): 28.03 µmol/L
Total bilirubin, in % of the initial value ([1]; month 9 of treatment): 70.49%
ALT ([1]; month 12 of treatment): 55.67 U/l
ALT, in % of the initial value ([1]; month 12 of treatment): 67.32%
AP ([1]; month 12 of treatment): 235.36 U/l
AP, in % of the initial value ([1]; month 12 of treatment): 63.93%
AST ([1]; month 12 of treatment): 70.73 U/l
Bcl-2 ([1]; month 12 of treatment): 0.52 U/ml
GGT ([1]; month 12 of treatment): 135.2 U/l
GGT, in % of the initial value ([1]; month 12 of treatment): 65.16%
IL-6 ([1]; month 12 of treatment): 20.2 pg/mL
IL-6, in % of the initial value ([1]; month 12 of treatment): 85.81%
MCP-1/CCL2 ([1]; month 12 of treatment): 412.3 pg/mL
MCP-1/CCL2, in % of the initial value ([1]; month 12 of treatment): 88.00%
MDA ([1]; month 12 of treatment): 22.01 nmol/mL
MDA, in % of the initial value ([1]; month 12 of treatment): 95.36%
Nf-kB ([1]; month 12 of treatment): 60.2 pg/mL
Nf-kB, in % of the initial value ([1]; month 12 of treatment): 91.91%
TNF-α ([1]; month 12 of treatment): 0.29 ng/mL
TNF-α, in % of the initial value ([1]; month 12 of treatment): 87.88%
Total bilirubin ([1]; month 12 of treatment): 26.03 µmol/L
Total bilirubin, in % of the initial value ([1]; month 12 of treatment): 64.58%
AST, in % of the initial value [1, 3]: 67.24% and 67.23%
Bcl-2, in % of the initial value [1, 3]: 72% and 72.22%
